From US20060293516A1, “Penicillin crystal and process for producing the same” (priority 2003, published 2006)

Columns and labels:
[1] = Storage stability of solid CMPB at room temperature, purity by liquid chromatography; format: physicochemical
Method: Five grams of the crystalline CMPB obtained in Example 1 (purity: 100%) and 5 g of the amorphous CMPB obtained in Reference Example 1 (purity: 99.2%) were placed in respective test tubes. These test tubes were sealed and stored at room temperature (20 to 30° C.) for 1 month. The respective purities of the CMPB samples were then determined using liquid chromatography.
(§1) One gram of crystalline CMPB (purity: 97%) prepared by storing the crystalline CMPB of Example 1 for 20 days at room temperature (about 25° C.) and 1.244 g of amorphous CMPB (purity: 78%) prepared by storing the amorphous CMPB of Reference Example 1 for 20 days at room temperature (about 25° C.) were used as test samples. Each sample was placed in flasks and 10 ml dichloromethane was added to dissolve the sample. These flasks were sealed. The dichloromethane solutions of CMPB samples were stirred at room temperature (about 25° C.) and, after 3.5 hours and after 5 hours, subjected to liquid chromatography to measure the amounts of CMPB remaining in the solutions. The amounts of the remaining CMPB were compared with the amount of CMPB in the crystalline CMPB sample or the amount of CMPB in the amorphous CMPB sample, which were measured prior to the test.

[2] = Stability of CMPB in dichloromethane solution, remaining CMPB by liquid chromatography; format: physicochemical; conditions: stirred at room temperature (about 25° C.)
Method: as §1, with “The dichloromethane solutions of CMPB samples were stirred at room temperature (about 25° C.) and, after 3.5 hours and after 5 hours, subjected to liquid chromatography to measure the amounts of CMPB remaining in the solutions.” left out

[3] = sealed test tube, room temperature (20 to 30° C.), 1 month, initial purity 100% (crystalline), 99.2% (amorphous)
[4] = stored 20 days at room temperature (about 25° C.)

| SMILES | purity after storage [1, 3] [%] | purity after storage [1, 4] [%] | amount of CMPB remaining in dichloromethane solution relative to initial amount ([2]; after 3.5 hours) | amount of CMPB remaining in dichloromethane solution relative to initial amount ([2]; after 6 hours (so in the source)) [%] | amount of CMPB remaining in dichloromethane solution relative to initial amount ([2]; after 5 hours) |
| --- | --- | --- | --- | --- | --- |
| C[C@@]1(CCl)SC2CC(=O)N2[C@H]1C(=O)OC(c1ccccc1)c1ccccc1 (stereo partly drawn) [amorphous CMPB, 2β-chloromethyl-2α-methylpenam-3α-carboxylic acid benzhydryl ester] | 67 | 78 | 86.8% | 63.4 | – |
| C[C@@]1(CCl)SC2CC(=O)N2[C@H]1C(=O)OC(c1ccccc1)c1ccccc1 (stereo partly drawn) [crystalline CMPB, 2β-chloromethyl-2α-methylpenam-3α-carboxylic acid benzhydryl ester] | 95 | 97 | exactly the same as the initial amount | – | exactly the same as the initial amount |
